Laboratory results taken from US8153589B2, “JNK3 as a target for the treatment of angiogenesis-related diseases” (The University of North Carolina at Chapel Hill, priority 2009, dated 2012).

Columns and labels:
eNOS = eNOS Ser 1177 phosphorylation, Western blot in BAECs; type: cell-based, bovine
Description: Cells were harvested in lysis buffer (1% Triton X-100, 50 mM Tris, pH 7.4, 150 mM NaCl, 1 mM Na3VO4 and 0.1% protease inhibitor tablet; Roche) and clarified by centrifugation at 16,000 g. Equal amounts of proteins were incubated with a specific antibody overnight at 4° C. with gentle rotation. Protein A/G Plus-agarose beads (Santa Cruz Biotechnology, Santa Cruz, Calif.) were used to pull down the antibody complexes. Afterward, beads were washed with lysis buffer, and immune complexes were separated by SDS-PAGE. Total cell lysates were separated by SDS-PAGE and transferred to nitrocellulose membranes.
The degree of SDF-1α-induced activation of eNOS was examined in bovine aortic endothelial cells (BAECs) by monitoring phosphorylation of the Ser 1177 activation site in eNOS. […] Phosphorylation of Ser 1177 peaked at 5 minutes after SDF-1α stimulation (FIG. 1A), and increased in a dose-dependent fashion over a SDF-1α concentration range of 50 ng/ml to 500 ng/ml (FIG. 1B), which approximates physiologically relevant SDF-1α concentrations.

BAECs = test: Boyden chamber migration assay; type: cell-based, bovine
Description: Boyden chamber assays were performed as previously described (40, 41) using a 48-well chamber apparatus (NeuroProbe, Cabin John, Md.). The lower chambers of the apparatus were filled with DMEM with or without SDF-1alpha and then covered with the collagen-coated filter and the upper chambers. Cells pretreated with or without the indicated inhibitors were then added to the upper chambers. After incubating for 6 h at 37° C., cells present on the lower surface were fixed, stained and identified with the 40× objective lens on a Nikon Eclipse TS 100 inverted microscope.
To determine whether eNOS activation is required for SDF-1α-mediated endothelial cell migration, we performed scratch-wound healing and Boyden chamber migration assays in the presence of the NOS-specific inhibitor L-NMMA (19). Confluent BAECs were pretreated for one hour with 1 mM or 5 mM L-NMMA or vehicle prior to each assay. […] Endothelial cells were transfected with 1 of 3 different bovine eNOS-specific siRNAs, or mixture of all three, and 72 hours later cell lysates were examined by western blot analysis for levels of eNOS protein.

MKP7 = test: Biotin switch assay, MKP7 nitrosylation in BAECs transfected with Flag-MKP7; type: cell-based; details: 50 ng/ml SDF-1alpha for 5 minutes
Description: Experiments were performed following the methods previously described by Dr. Stamler's laboratory (39). Cell lysates containing Flag or Myc-tagged MKP7 protein were treated with the indicated concentrations of GSNO followed by the addition of 2 volumes of HEN buffer and freshly prepared S-methyl methanethiosulfonate (10% v/v in N,N-dimethylformamide) and SDS (25% v/v) to final concentrations of 0.1 and 2.5%, respectively. Following frequent vortexing at 50° C. for 1 hour, proteins were precipitated with 3 volumes of acetone at −20° C. for 30 min. The proteins were recovered by centrifugation at 5,000×g for 5 min, followed by gentle rinsing of the pellet with 3×1 ml acetone. The pellets were then resuspended in 240 μl of HEN buffer containing 1% SDS. The resuspended protein was precipitated, rinsed and resuspended once more. For labeling, the blocked samples were mixed with 0.1 volume of biotin-HPDP (2.5 mg/ml in Me2SO) and 0.1 volume of HEN (control) or freshly prepared sodium Ascorbic acid in HEN buffer. […] The eluted mixture was then analyzed by SDS-PAGE, followed by immunoblotting with anti-Flag-HRP (1:5000) or antibodies.
As a first step, we investigated whether SDF-1α treatment of BAECs would result in S-nitrosylation of MKP7. […] Next we used JNK3 phosphorylation as a readout for determining whether or not SDF-1α activation of JNK3 could be inhibited by MKP7. […]

SDF-1α
time of peak phosphorylation of eNOS Ser 1177 after stimulation (eNOS; 50 ng/ml SDF-1alpha): 5 min
eNOS phosphorylation (Ser 1177) (eNOS; 50 ng/ml to 500 ng/ml SDF-1α): time- and dose-dependent manner
cell migration in Boyden chambers (BAECs; 50 ng/ml SDF-1alpha, no inhibitor (FIG. 1D)): 86±5 cells per field
endothelial cell migration (BAECs; control-transfected BAECs, 50 ng/ml SDF-1alpha (FIG. 4F)): 125±9 cells/field
MKP7 nitrosylation in BAECs (MKP7): increased
